Measurements taken from paper PMC7838080, “Structural and Biochemical Insights Into Two BAHD Acyltransferases (AtSHT and AtSDT) Involved in Phenolamide Biosynthesis” (Frontiers in Plant Science, 2021).

Tests used:
AtSHT [1] = target: T1, AtSHT (Arabidopsis thaliana, UniProt O64470); experiment: X-ray crystal structure; format: binding; details: co-crystallised with spermidine and CoA; 2.3 Å; active site near His155
T1 construct: gene SHT; wild type in pET28a (NdeI/XhoI), E. coli BL21(DE3), Ni-NTA and gel filtration; model residues 1-451
T1 sequence (O64470 1-451): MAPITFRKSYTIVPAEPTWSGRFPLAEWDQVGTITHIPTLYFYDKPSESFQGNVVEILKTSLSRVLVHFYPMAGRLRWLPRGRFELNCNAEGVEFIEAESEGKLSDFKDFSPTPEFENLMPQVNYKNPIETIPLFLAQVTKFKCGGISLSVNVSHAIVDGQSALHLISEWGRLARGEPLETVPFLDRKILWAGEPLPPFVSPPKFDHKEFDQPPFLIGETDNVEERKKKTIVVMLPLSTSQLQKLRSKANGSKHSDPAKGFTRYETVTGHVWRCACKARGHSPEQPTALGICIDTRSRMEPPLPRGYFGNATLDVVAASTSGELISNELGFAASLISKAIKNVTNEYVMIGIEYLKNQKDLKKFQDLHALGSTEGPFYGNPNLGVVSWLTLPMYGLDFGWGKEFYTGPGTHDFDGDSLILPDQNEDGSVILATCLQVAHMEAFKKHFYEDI

NP_190301.2 = target: T2, NP_190301.2 (Arabidopsis thaliana, UniProt F4JAD2); experiment: HPLC-MS product assay; format: biochemical; details: 200 µM putrescine, pH 7.5, 30 °C, 30 min
T2 construct: gene At3g47170; wild type in pET28a (NdeI/XhoI), E. coli BL21(DE3), Ni-NTA and gel filtration
T2 sequence (F4JAD2 1-468): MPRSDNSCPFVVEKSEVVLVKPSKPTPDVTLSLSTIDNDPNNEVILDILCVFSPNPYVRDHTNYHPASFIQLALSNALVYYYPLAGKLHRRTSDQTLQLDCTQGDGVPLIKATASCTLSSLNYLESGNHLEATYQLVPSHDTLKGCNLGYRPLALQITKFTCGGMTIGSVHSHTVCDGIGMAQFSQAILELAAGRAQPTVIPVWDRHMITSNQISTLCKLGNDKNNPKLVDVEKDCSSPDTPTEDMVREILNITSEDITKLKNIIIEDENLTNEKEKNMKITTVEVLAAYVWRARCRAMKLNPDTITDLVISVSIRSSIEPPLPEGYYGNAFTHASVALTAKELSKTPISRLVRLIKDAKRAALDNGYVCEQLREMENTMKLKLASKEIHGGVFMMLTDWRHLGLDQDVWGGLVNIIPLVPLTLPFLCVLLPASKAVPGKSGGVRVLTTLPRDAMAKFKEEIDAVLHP

AtSHT [2] = target: T1, AtSHT; experiment: LC-MS product assay; format: biochemical; details: 60 µM acyl donor, 200 µM spermidine, pH 7.5, 30 °C, 30 min
OAO95042.1 = target: T3, OAO95042.1 (Arabidopsis thaliana, UniProt F4K5C5); experiment: HPLC-MS product assay; format: biochemical; details: 200 µM putrescine, 60 µM caffeoyl-CoA, pH 7.5, 30 °C, 30 min
T3 construct: gene At5g07080; wild type in pET28a (NdeI/XhoI), E. coli BL21(DE3), Ni-NTA and gel filtration
T3 sequence (F4K5C5 1-450): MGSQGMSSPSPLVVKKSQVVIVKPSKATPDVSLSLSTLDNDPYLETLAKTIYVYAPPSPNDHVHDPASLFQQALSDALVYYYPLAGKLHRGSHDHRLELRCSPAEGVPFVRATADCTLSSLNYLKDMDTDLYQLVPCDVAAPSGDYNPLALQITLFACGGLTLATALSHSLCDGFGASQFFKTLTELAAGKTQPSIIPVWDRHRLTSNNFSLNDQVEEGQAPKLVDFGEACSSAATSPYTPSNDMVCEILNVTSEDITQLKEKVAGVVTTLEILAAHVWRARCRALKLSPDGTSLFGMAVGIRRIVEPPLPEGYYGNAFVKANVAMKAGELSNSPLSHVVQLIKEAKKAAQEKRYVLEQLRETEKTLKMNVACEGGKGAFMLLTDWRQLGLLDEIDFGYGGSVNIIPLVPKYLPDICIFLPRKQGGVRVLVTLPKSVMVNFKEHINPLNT

AtSDT [3] = target: T4, AtSDT (Arabidopsis thaliana, UniProt O80467); experiment: LC-MS product assay; format: biochemical; details: 60 µM acyl donor, 200 µM spermidine, pH 7.5, 30 °C, 30 min
T4 construct: gene SDT; wild type in pET28a (NdeI/XhoI), E. coli BL21(DE3), Ni-NTA and gel filtration
T4 sequence (O80467 1-451): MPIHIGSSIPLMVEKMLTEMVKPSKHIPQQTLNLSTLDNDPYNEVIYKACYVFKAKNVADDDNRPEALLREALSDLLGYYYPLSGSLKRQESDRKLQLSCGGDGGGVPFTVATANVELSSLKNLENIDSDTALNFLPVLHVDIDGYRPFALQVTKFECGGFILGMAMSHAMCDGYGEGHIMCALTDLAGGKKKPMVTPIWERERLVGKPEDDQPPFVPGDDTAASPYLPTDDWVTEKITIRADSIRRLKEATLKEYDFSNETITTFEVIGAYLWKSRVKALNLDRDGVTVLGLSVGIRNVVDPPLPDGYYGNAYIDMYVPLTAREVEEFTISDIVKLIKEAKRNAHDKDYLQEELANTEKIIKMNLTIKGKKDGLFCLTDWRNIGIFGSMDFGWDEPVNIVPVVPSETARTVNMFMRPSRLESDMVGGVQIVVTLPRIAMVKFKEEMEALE

AtSDT [4] = target: T4, AtSDT; experiment: LC-MS product assay; X-ray crystal structure; format: biochemical; details: 200 µM spermidine, 60 µM sinapoyl-CoA, pH 7.5, 30 °C, 30 min; ligand in crystal only possible electron density, pose docked
AtSHT [5] = target: T1, AtSHT; experiment: LC-MS product assay; X-ray crystal structure; format: biochemical; details: 200 µM spermidine, 60 µM feruloyl-CoA, pH 7.5, 30 °C, 30 min; ligand in crystal only possible electron density, pose docked

CC(C)(COP(=O)(O)OP(=O)(O)OC[C@H]1O[C@@H](n2cnc3c(N)ncnc32)[C@H](O)[C@@H]1OP(=O)(O)O)[C@@H](O)C(=O)NCCC(=O)NCCS [CoA-HS]
X-ray crystal structure (AtSHT [1]): The extra density near His155 was determined as CoA-HS

CC(C)(COP(=O)(O)OP(=O)(O)OC[C@H]1O[C@@H](n2cnc3c(N)ncnc32)[C@H](O)[C@@H]1OP(=O)(O)O)[C@@H](O)C(=O)NCCC(=O)NCCSC(=O)/C=C/c1ccc(O)c(O)c1 [caffeoyl-CoA]
HPLC-MS product assay (NP_190301.2; 60 µM acyl donor): encoded enzymes that could efficiently convert putrescine and caffeoyl-CoA to di-caffeoyl putrescine

COc1cc(/C=C/C(=O)SCCNC(=O)CCNC(=O)[C@H](O)C(C)(C)COP(=O)(O)OP(=O)(O)OC[C@H]2O[C@@H](n3cnc4c(N)ncnc43)[C@H](O)[C@@H]2OP(=O)(O)O)ccc1O [feruloyl-CoA]
LC-MS product assay (AtSHT [2]): wild-type AtSHT can efficiently convert spermidine and feruloyl-CoA to monoferuloyl spermidine

NCCCCN [putrescine]
HPLC-MS product assay (OAO95042.1): encoded enzymes that could efficiently convert putrescine and caffeoyl-CoA to di-caffeoyl putrescine
HPLC-MS product assay (NP_190301.2; 60 µM caffeoyl-CoA): encoded enzymes that could efficiently convert putrescine and caffeoyl-CoA to di-caffeoyl putrescine

COc1cc(/C=C/C(=O)SCCNC(=O)CCNC(=O)[C@H](O)C(C)(C)COP(=O)(O)OP(=O)(O)OC[C@H]2O[C@@H](n3cnc4c(N)ncnc43)[C@H](O)[C@@H]2OP(=O)(O)O)cc(OC)c1O [sinapoyl-CoA]
LC-MS product assay (AtSDT [3]): wild-type AtSDT can efficiently couple spermidine with sinapoyl CoA to yield monosinapoyl

NCCCCNCCCN [spermidine]
LC-MS product assay; X-ray crystal structure (AtSDT [4]): wild-type AtSDT can efficiently couple spermidine with sinapoyl CoA to yield monosinapoyl
LC-MS product assay; X-ray crystal structure (AtSHT [5]): wild-type AtSHT can efficiently convert spermidine and feruloyl-CoA to monoferuloyl spermidine
